Assay results from patent US12152048B2, “Nitroxoline prodrug and use thereof” (Jiangsu Yahong Meditech Co., Ltd., priority 2018, dated 2024).
Converted amounts (≈) assume the structure as drawn.

How the values were obtained:
[1] = Stability in rat liver microsome; conditions: 2 μM, 37° C., 30 minutes
[2] = Determination of water solubility in phosphate buffer; type: physicochemical; conditions: for solubility at 24 h: aqueous buffer, thermodynamic from solid, phosphate buffer pH 7.4, room temperature; for water solubility compared with nitroxoline: conclusion in words
Excerpt: Experimental instruments: 96-well filter plate (MSHVN4510 or MSHVN4550, Millipore); electronic digital display vortex mixer (MS3 Digital, IKA); multi-purpose vacuum pump (circulating water type, SHB-111, Zhengzhou Greatwall Scientific Industrial and Trade Co., Ltd.); balance (XSLT05, Mettler-Toledo); comfortable mixer (Eppendorf AG 22331 Hamburg, Eppendorf); liquid chromatography (LC-3AD, Shimadzu); mass spectrometry (API4000, Applied Biosystems, USA); sample injector (Anylytics AG System, CTC). Nitroxoline was prepared according to the method disclosed in Journal of Heterocyclic Chemistry, 1971, vol. 8, p 821 by Wisdom Pharmaceutical Co., Ltd.
Experimental process: 500 μL of phosphate buffer (pH=1.2, 4.5, 6.8 or 7.4) were added to a glass flask, to which 2 mg of compound powder were added. The flask was sealed with a cap and shaked on a mixer (VORTEX-GENIE2) at room temperature for 24 hours. The solution was subjected to vacuum filtration, and the filtrate was processed to determine the compound concentration by LC/MS/MS.

[3] = Stability in dog liver microsome; conditions: 2 μM, 37° C., 30 minutes
[4] = Stability in human liver microsome; conditions: 2 μM, 37° C., 30 minutes
Experimental: Experimental instruments: thermostatic shaker (SHA-B, Guohua Electric Appliance Co., Ltd.); centrifuge (5810R, Eppendorf); mass spectrometry (API4000, Applied Biosystems, USA); liquid chromatography (LC-30AD, Shimadzu); sample injector (CTC Analytics AG System, CTC).
Experimental process: 25 μg/mL alamethicin (Aldrich), 5 mM magnesium chloride and 0.5 mg/mL microsome (XENOTECH) were added to 100 mM phosphate buffer to obtain a coenzyme-free reaction solution. A portion of the coenzyme-free reaction solution was added with 1 mM reductive nicotinamide adenine dinucleotide phosphate (Aldrich) and 5 mM uridine diphosphate glucuronic acid (Aldrich) to obtain a coenzyme-containing reaction solution. The working solution of the compound of the present invention was added to the two reaction solutions so that the final concentration of the compound was 2 μM. Immediately after mixing well, 50 μL of the solution were taken out as the 0 minute sample, and 50 μL of the remaining sample were taken out after incubating at 37° C. for 30 minutes. All the samples taken out were immediately processed to precipitate protein, and centrifuged to obtain a supernate for the determination of the compound concentration by LC/MS/MS.

[5] = Stability in mouse liver microsome; type: in vitro ADME; conditions: 2 μM, 37° C., 30 minutes
[6] = Stability in monkey plasma; type: in vitro ADME
Excerpt: (§1) Experimental instruments: thermostatic shaker (SHA-B, Guohua Electric Appliance Co., Ltd.); centrifuge (5810R, Eppendorf); mass spectrometry (AP4000, Applied Biosystems, USA); liquid chromatography (LC-30AD, Shimadzu); sample injector (CTC Analytics AG System, CTC).
(§2) Test animals: plasma of human (batch number: BRH1343165), rat (batch number: RAT336728), mouse (batch number: MSE280000), dog (batch number: BGL99137) and monkey (batch number: PH-Monkey-20180821) are purchased from Shanghai Sixin Biological Technology Co., Ltd.
(§3) Experimental process: the compound of the present invention was dissolved in an organic solvent to obtain a 1 mM working solution. 3 μL of the working solution were added to 597 μL of pre-incubated human or rat plasma and mixed well. 50 μL of the solution were immediately taken out as the 0 minute sample. The remaining sample was incubated at 37° C., and 50 μL of sample were taken out at 15, 30, 60 and 120 minutes respectively. All the samples taken out were immediately processed to precipitate protein, and centrifuged to obtain a supermate for the determination of the compound concentration by LC/MS/MS.

[7] = Stability in dog plasma; type: in vitro ADME
[8] = Stability in rat plasma
[9] = Stability in human plasma
Excerpt: as §1, §2, §3

[10] = Stability in plasma, overall conclusion (species not stated); conditions: conclusion in words

Percentage of the compound remaining in rat liver microsome ([1]; with coenzyme) [%]	Percentage of the compound remaining in rat liver microsome ([1]; without coenzyme) [%]	solubility at 24 h [2] [mg/mL]	Percentage of the compound remaining in dog liver microsome ([3]; with coenzyme) [%]	Percentage of the compound remaining in dog liver microsome ([3]; without coenzyme) [%]	Percentage of the compound remaining in human liver microsome ([4]; with coenzyme) [%]	Percentage of the compound remaining in human liver microsome ([4]; without coenzyme) [%]	Percentage of the compound remaining in mouse liver microsome ([5]; with coenzyme) [%]	Percentage of the compound remaining in mouse liver microsome ([5]; without coenzyme) [%]	SMILES	other results
0.15	0.27	0.0911	0.42	0.73	0.24	0.76	0.16	0.27	CC(=O)OCOc1ccc([N+](=O)[O-])c2cccnc12 [Compound 1, (5-nitroquinolin-8-yloxy)methyl acetate]	
0.52	0.45	0.0727 (≈ 263 µM)	0.13	0.18	0.27	0.16	0.10	0.02	CCC(=O)OCOc1ccc([N+](=O)[O-])c2cccnc12 [Compound 2, (5-nitroquinolin-8-yloxy)methyl propionate]	
0.08	0.04	0.0592 (≈ 204 µM)	0.16	0.19	0.05	0.06	0.01	0.01	CC(C)C(=O)OCOc1ccc([N+](=O)[O-])c2cccnc12 [Compound 3, (5-nitroquinolin-8-yloxy)methyl isobutyrate]	
									CC(C)(C)C(=O)OCOc1ccc([N+](=O)[O-])c2cccnc12 [Compound 4, (5-nitroquinolin-8-yloxy)methyl pivalate]	Percentage of the compound remaining in plasma ([6]; 0 minute): 100.0%; Percentage of the compound remaining in plasma ([6]; 37° C., 15 minutes): 4.8%; Percentage of the compound remaining in plasma ([6]; 37° C., 30 minutes): 0.3%; Percentage of the compound remaining in plasma ([6]; 37° C., 60 minutes): 0.0%; Percentage of the compound remaining in plasma ([6]; 37° C., 120 minutes): 0.0%; Percentage of the compound remaining in plasma ([7]; 0 minute): 100.0%; Percentage of the compound remaining in plasma ([7]; 37° C., 15 minutes): 80.0%; Percentage of the compound remaining in plasma ([7]; 37° C., 30 minutes): 56.3%; Percentage of the compound remaining in plasma ([7]; 37° C., 60 minutes): 32.7%; Percentage of the compound remaining in plasma ([7]; 37° C., 120 minutes): 18.2%; Percentage of the compound remaining in plasma ([8]; 0 minute): 100.0%; Percentage of the compound remaining in plasma ([8]; 37° C., 15 minutes): 0.0%; Percentage of the compound remaining in plasma ([8]; 37° C., 30 minutes): 0.0%; Percentage of the compound remaining in plasma ([8]; 37° C., 60 minutes): 0.0%; Percentage of the compound remaining in plasma ([8]; 37° C., 120 minutes): 0.0%; Percentage of the compound remaining in plasma ([9]; 0 minute): 100.0%; Percentage of the compound remaining in plasma ([9]; 37° C., 15 minutes): 80.9%; Percentage of the compound remaining in plasma ([9]; 37° C., 30 minutes): 70.7%; Percentage of the compound remaining in plasma ([9]; 37° C., 60 minutes): 54.7%; Percentage of the compound remaining in plasma ([9]; 37° C., 120 minutes): 31.4%
0.06	4.63	0.132 (≈ 328 µM)	0.14	1.40	2.65	5.06	0.26	0.00	CCCOC(=O)N1CCC[C@H]1C(=O)OCOc1ccc([N+](=O)[O-])c2cccnc12 [Compound 18, (S)-2-(5-nitroquinolin-8-yloxy)methyl 1-propyl pyrrolidine-1,2-dicarboxylate]	water solubility compared with nitroxoline [2]: increased by several times
0.01	0.02	0.285	0.01	0.02	0.03	0.02	0.04	0.04	CC(=O)OC(C)Oc1ccc([N+](=O)[O-])c2cccnc12 (stereo not shown) [Compound 47, 1-(5-nitroquinolin-8-yloxy)ethyl acetate]	
0.06	0.03		0.03	0.02	0.08	0.10	0.03	0.05	CCC(=O)OC(C)Oc1ccc([N+](=O)[O-])c2cccnc12 (stereo not shown) [Compound 48, 1-(5-nitroquinolin-8-yloxy)ethyl propionate]	
0.01	0.03	0.105 (≈ 344 µM)	0.01	0.01	0.03	0.03	0.01	0.03	CC(OC(=O)C(C)C)Oc1ccc([N+](=O)[O-])c2cccnc12 (stereo not shown) [Compound 49, 1-(5-nitroquinolin-8-yloxy)ethyl isobutyrate]	
									CC1CN(C(=O)OCOc2ccc([N+](=O)[O-])c3cccnc23)CCO1 (stereo not shown) [Compound 62, (5-nitroquinolin-8-yloxy)methyl 2-methylmorpholine-4-carboxylate]	Percentage of the compound remaining in plasma ([8]; 0 minute): 100.0%; Percentage of the compound remaining in plasma ([8]; 37° C., 15 minutes): 92.4%; Percentage of the compound remaining in plasma ([8]; 37° C., 30 minutes): 97.3%; Percentage of the compound remaining in plasma ([8]; 37° C., 60 minutes): 95.8%; Percentage of the compound remaining in plasma ([8]; 37° C., 120 minutes): 89.0%; Percentage of the compound remaining in plasma ([9]; 0 minute): 100.0%; Percentage of the compound remaining in plasma ([9]; 37° C., 15 minutes): 95.4%; Percentage of the compound remaining in plasma ([9]; 37° C., 30 minutes): 101.8%; Percentage of the compound remaining in plasma ([9]; 37° C., 60 minutes): 99.7%; Percentage of the compound remaining in plasma ([9]; 37° C., 120 minutes): 92.7%; stability in plasma [10]: high stability
4.33	59.38	0.965 (≈ 1940 µM)	65.08	93.36	29.88	39.15	0.72	2.63	CC(=O)N(C)CC(=O)OCc1cccnc1N(C)C(=O)OCOc1ccc([N+](=O)[O-])c2cccnc12 [Compound 65]	water solubility compared with nitroxoline [2]: increased by several times
0.06	12.10	0.54 (≈ 1000 µM)	13.05	67.43	9.77	74.45	0.02	4.32	CN(CC(=O)OCc1cccnc1N(C)C(=O)OCOc1ccc([N+](=O)[O-])c2cccnc12)C(=O)C(C)(C)C [Compound 66]	water solubility compared with nitroxoline [2]: increased by several times

SMILES	Percentage of the compound remaining in rat liver microsome ([1]; with coenzyme) [%]	Percentage of the compound remaining in rat liver microsome ([1]; without coenzyme) [%]	solubility at 24 h [2] [mg/mL]	Percentage of the compound remaining in dog liver microsome ([3]; with coenzyme) [%]	Percentage of the compound remaining in dog liver microsome ([3]; without coenzyme) [%]	Percentage of the compound remaining in human liver microsome ([4]; with coenzyme) [%]	Percentage of the compound remaining in human liver microsome ([4]; without coenzyme) [%]	Percentage of the compound remaining in mouse liver microsome ([5]; with coenzyme) [%]	Percentage of the compound remaining in mouse liver microsome ([5]; without coenzyme) [%]	other results
CC(C)(C)OC(=O)NCCCCCCC(=O)OCOc1ccc([N+](=O)[O-])c2cccnc12 [Compound 12, (5-nitroquinolin-8-yloxy)methyl 7-(tert-butoxycarbonylamino)heptanoate]	0.00	0.02	0.00185 (≈ 4.13 µM)	0.00	0.02	0.00	0.03			
CN(C)C(=O)Oc1ccc([N+](=O)[O-])c2cccnc12 [Compound 78, 5-nitroquinolin-8-yl dimethylcarbamate]	2.40	91.50	0.226 (≈ 863 µM)	0.36	98.41	14.46	90.37	0.00	100.18	
